This note sets out measurements from patent US8759510B2, “Nucleoside cyclicphosphates” (Gilead Pharmasset LLC, priority 2008, dated 2014).

The subject of the test is HCV replicon RNA-containing Huh7 cells (clone A cells). In words: HCV replicon assay. The test is classed as cell-based. Conditions: incubation 4 days, replicon RNA by RT-PCR, ΔCt of 3.3 = 1-log 10 reduction (EC90). On the procedure: HCV replicon assay. HCV replicon RNA-containing Huh7 cells (clone A cells; Apath, LLC, St. Louis, Mo.) were kept at exponential growth in Dulbecco's modified Eagle's medium (high glucose) containing 10% fetal bovine serum, 4 mM L-glutamine and 1 mM sodium pyruvate, 1× nonessential amino acids, and G418 (1,000 μg/ml). Antiviral assays were performed in the same medium without G418. Cells were seeded in a 96-well plate at 1,500 cells per well, and test compounds were added immediately after seeding. Incubation time 4 days. At the end of the incubation step, total cellular RNA was isolated (RNeasy 96 kit; Qiagen). Replicon RNA and an internal control (TaqMan rRNA control reagents; Applied Biosystems) were amplified in a single-step multiplex RT-PCR protocol as recommended by the manufacturer. The HCV primers and probe were designed with Primer Express software (Applied Biosystems) and covered highly conserved 5′-untranslated region (UTR) sequences (sense primer: 5′-AGCCATGGCGTTAGTA(T)GAGTGT-3′ (SEQ ID NO: 1); antisense primer: 5′-TTCCGCAGACCACTATGG-3′ (SEQ ID NO:2); and probe; 5′-FAM-[…]-TAMRA-3′ (SEQ ID NO:3)).
To express the antiviral effectiveness of a compound, the threshold RT-PCR cycle of the test compound was subtracted from the average threshold RT-PCR cycle of the no-drug control (ΔCtHCV). A ΔCt of 3.3 equals a 1-log 10 reduction (equal to the 90% effective concentration [EC90]) in replicon RNA levels. The cytotoxicity of the test compound could also be expressed by calculating the ΔCtrRNA values. The ΔΔCt specificity parameter could then be introduced (ΔCtHCV-ΔCtrRNA), in which the levels of HCV RNA are normalized for the rRNA levels and calibrated against the no-drug control.

The mark [1] stands for this setting: Hepatitis C virus, Huh-7, 96 h, Huh7 clone A replicon cells, read-out: CloneA EC90.
Where [2] appears, read: read-out: CloneA EC90, Huh7 clone A replicon cells.
The mark [3] stands for this setting: Hepatitis C virus, Huh-7, 96 h, read-out: CloneA EC90, Huh7 clone A replicon cells.
[4] abbreviates: Huh7 clone A replicon cells, read-out: CloneA EC90.

Structures are written as SMILES. Read-outs that look alike come from different tables or passages of the source.

The EC90 is the point of the concentration-response curve where the effect stands at 90%. For `C[C@@]1(F)[C@@H]2O[P@@](=O)(OCc3ccccc3)OC[C@H]2O[C@H]1n1ccc(=O)[nH]c1=O` (single isomer, unassigned) [Compound 2a], under setting [1], the EC90 is 25200 nM.

Consider `C[C@@]1(F)[C@@H]2O[P@](=O)(OCC3CC3)OC[C@H]2O[C@H]1n1cnc2c(O)nc(N)nc21` (single isomer, unassigned) [Example 38b], for which the EC90 under setting [1] is 26600 nM.

In the case of `COc1nc(N)nc2c1ncn2[C@@H]1O[C@@H]2COP(=O)(OC(C)C)O[C@H]2[C@@]1(C)F` (single isomer, unassigned) [Example 43a], the EC90 under setting [1] stood at 290 nM.

For the molecule `COc1nc(N)nc2c1ncn2[C@@H]1O[C@@H]2CO[P@](=O)(OC(C)C)O[C@H]2[C@@]1(C)F` (single isomer, unassigned) [Example 43b], the EC90 under setting [1] turned out to be 60 nM.

Consider `COc1nc(N)nc2c1ncn2[C@@H]1O[C@@H]2COP(=O)(OCc3ccccc3)O[C@H]2[C@@]1(C)F` (stereo in doubt) [Example 44, 9-((2R,4aR,6R,7R,7aR)-2-Benzyloxy-7-fluoro-7-methyl-2-oxo-tetrahydro-2λ^5-furo[3,2-d][1,3,2]dioxaphosphinin-6-yl)-6-methoxy-9H-purin-2-ylamine], for which the EC90 under setting [1] is 53 nM.

With `CO[P@@]1(=O)OC[C@H]2O[C@@H](n3ccc(=O)[nH]c3=O)[C@](C)(F)[C@@H]2O1` [Compound 1a, 1-((2S,4aR,6R,7R,7aR)-7-Fluoro-2-methoxy-7-methyl-2-oxo-tetrahydro-2λ^5-furo[3,2-d][1,3,2]dioxaphosphinin-6-yl)-1H-pyrimidine-2,4-dione], the EC90 under setting [2] is 5350 nM.

Consider `CO[P@@]1(=O)OC[C@H]2O[C@@H](n3ccc(=O)[nH]c3=O)[C@](C)(F)[C@@H]2O1` [Compound 1b, 1-((2S,4aR,6R,7R,7aR)-7-Fluoro-2-methoxy-7-methyl-2-oxo-tetrahydro-2λ^5-furo[3,2-d][1,3,2]dioxaphosphinin-6-yl)-1H-pyrimidine-2,4-dione], for which the EC90 under setting [2] was determined as 17400 nM.

`C[C@@]1(F)[C@@H]2O[P@@](=O)(OCc3ccccc3)OC[C@H]2O[C@H]1n1ccc(=O)[nH]c1=O` [Compound 2b, 1-((2S,4aR,6R,7R,7aR)-2-Benzyloxy-7-fluoro-7-methyl-2-oxo-tetrahydro-2λ^5-furo[3,2-d][1,3,2]dioxaphosphinin-6-yl)-1H-pyrimidine-2,4-dione]: the EC90 under setting [1] is 17700 nM.

On to `COP1(=O)OC[C@H]2O[C@@H](n3cnc4c(N5CCC5)nc(N)nc43)[C@](C)(F)[C@@H]2O1` (stereo partly drawn) [Compound 3, 6-Azetidin-1-yl-9-((4aR,6R,7R,7aR)-7-fluoro-2-methoxy-7-methyl-2-oxo-tetrahydro-2λ^5-furo[3,2-d][1,3,2]dioxaphosphinin-6-yl)-9H-purin-2-ylamine], for which, under setting [2], the EC90 came to 750 nM.

Take `COP1(=O)OC[C@H]2O[C@@H](n3cnc4c(O)nc(N)nc43)[C@](C)(F)[C@@H]2O1` (stereo partly drawn) [Compound 4, 2-Amino-9-((4aR,6R,7R,7aR)-7-fluoro-2-methoxy-7-methyl-2-oxo-tetrahydro-2λ^5-furo[3,2-d][1,3,2]dioxaphosphinin-6-yl)-9H-purin-6-ol]: under setting [3], the EC90 was 11700 nM.

As to `CO[P@]1(=O)OC[C@H]2O[C@@H](n3ccc(N)nc3=O)[C@](C)(F)[C@@H]2O1` [Compound 5, 4-Amino-1-((2R,4aR,6R,7R,7aR)-7-fluoro-2-methoxy-7-methyl-2-oxo-tetrahydro-2λ^5-furo[3,2-d][1,3,2]dioxaphosphinin-6-yl)-1H-pyrimidin-2-one], under setting [3], the EC90 came to 8060 nM.

On to `COP1(=O)OC[C@H]2O[C@@H](n3cnc4c(NC5CCC5)nc(N)nc43)[C@](C)(F)[C@@H]2O1` (stereo partly drawn) [Compound 6, N^6-Cyclobutyl-9((4aR,6R,7R,7aR)-7-fluoro-2-methoxy-7-methyl-2-oxo-tetrahydro-2λ^5-furo[3,2-d][1,3,2]dioxaphosphinin-6-yl)-9H-purine-2,6-diamine], for which, under setting [3], the EC90 was determined as 1550 nM.

In the case of `CCOc1nc(N)nc2c1ncn2[C@@H]1O[C@@H]2COP(=O)(OC)O[C@H]2[C@@]1(C)F` (stereo partly drawn) [Compound 18, 6-Ethoxy-9-((4aR,6R,7R,7aR)-7-fluoro-2-methoxy-7-methyl-2-oxo-tetrahydro-2,5-furo[3,2-d][1,3,2]dioxaphosphinin-6-yl)-9H-purin-2-ylamine], the EC90 under setting [4] turned out to be 480 nM.

Turning to `CCOc1nc(N)nc2c1ncn2[C@@H]1O[C@@H]2COP(=O)(OC(C)C)O[C@H]2[C@@]1(C)F` (stereo partly drawn) [Compound 19, 6-Ethoxy-9-((4aR,6R,7R,7aR)-7-fluoro-2-isopropoxy-7-methyl-2-oxo-tetrahydro-2,5-furo[3,2-d][1,3,2]dioxaphosphinin-6-yl)-9H-purin-2-yl amine], the EC90 under setting [4] worked out at 600 nM.

Regarding `C[C@@]1(F)[C@@H]2O[P@](=O)(OC3CCCC3)OC[C@H]2O[C@H]1n1cnc2c(N3CCC3)nc(N)nc21` [Example 32a, 6-Azetidin-1-yl-9-((4aR,6R,7R,7aR)-2-cyclopentyloxy-7-fluoro-7-methyl-2-oxo-tetrahydro-2λ^5-furo[3,2-d][1,3,2]dioxaphosphinin-6-yl)-9H-purin-2-ylamine], under setting [1], the EC90 was found to be 8540 nM.

Consider `C[C@@]1(F)[C@@H]2O[P@@](=O)(OC3CCCC3)OC[C@H]2O[C@H]1n1cnc2c(N3CCC3)nc(N)nc21` [Example 32b, 6-Azetidin-1-yl-9-((4aR,6R,7R,7aR)-2-cyclopentyloxy-7-fluoro-7-methyl-2-oxo-tetrahydro-2λ^5-furo[3,2-d][1,3,2]dioxaphosphinin-6-yl)-9H-purin-2-ylamine], for which the EC90 under setting [1] was 4700 nM.

For `COc1nc(N)nc2c1ncn2[C@@H]1O[C@@H]2COP(=O)(O)O[C@H]2[C@@]1(C)F` [Example 41, (4aR,6R,7R,7aR)-6-(2-Amino-6-methoxy-purin-9-yl)-7-fluoro-7-methyl-2-oxo-tetrahydro-2λ^5-furo[3,2-d][1,3,2]dioxaphosphinin-2-ol], the EC90 under setting [1] stood at 98 nM.

As for `CCOc1nc(N)nc2c1ncn2[C@@H]1O[C@@H]2COP(=O)(O)O[C@H]2[C@@]1(C)F` [Example 45, (4aR,6R,7R,7aR)-6-(2-Amino-6-ethoxy-purin-9-yl)-7-fluoro-7-methyl-2-oxo-tetrahydro-2λ^5-furo[3,2-d][1,3,2]dioxaphosphinin-2-ol], under setting [1], the EC90 was 700 nM.

As to `CCOc1nc(N)nc2c1ncn2[C@@H]1O[C@@H]2CO[P@](=O)(OCc3ccccc3)O[C@H]2[C@@]1(C)F` [Example 48, 9-((4aR,6R,7R,7aR)-2-Benzyloxy-7-fluoro-7-methyl-2-oxo-tetrahydro-2λ5-furo[3,2-d][1,3,2]dioxaphosphinin-6-yl)-6-ethoxy-9H-purin-2-ylamine], the EC90 under setting [1] turned out to be 320 nM.
